Assay results from patent US4080450A, “2-Carbamoyl-1,2,4,5-tetrahydro-3H-2-benzazepin-3-ones” (U C B, Societe Anonyme, priority 1976, dated 1978).
“And” between values parts separate entries of the source, which are not always exact repeats. Equal entries are not always repeated. Where two headings read alike, the source gives them in different places.

Assays:
[1] = active avoidance test (memory retention); type: in vivo, rat; details: for minimal effective dose: Rattus norvegicus, sc, subcutaneous, minimum dose which lowers the stimulus to below 110 g
From the text: The principle of the active avoidance test, which has been developed in our laboratories and used for this purpose, may be described as follows: the withdrawal reaction of a rat's paw subjected to increasing and measured pressure is observed. The pressure at which the withdrawal reaction is produced is called the reaction threshold. The latter is expressed in grams and thus corresponds to the minimum pressure which, when applied to the paw of the animals causes withdrawal. It is read off directly from a scale on the apparatus used. […] A minimum of 20 rats are used for each test (10 treated rats and 10 control rats), the active dose being defined as the minimum dose which lowers the stimulus to below 110 g.
*Stimulus (expressed in g.) initiating the avoidance reaction 24 hours
after the first stimulation.

[2] = Brevatonal test (protection against hypoxic type aggressions); type: in vivo, mice; details: i.p.
Procedure: At the doses used, this curarizing agent brings about a respiratory depression which, in turn, brings about a hypoxi-hypercapnic syndrome. A compound capable of protecting the brain during this short period of hypoxia ensures survival. The compounds are administered to groups of 10 mice one hour before the injection of the curarizing agent; concurrently herewith, a control group of 10 mice is given a physiological salt solution prior to the curarizing agent. For each compound, the proportion of mice which survive is compared to the proportion of control mice which survive by the "Fisher exact probability test". This test, called the Brevatonal test, has also been developed in our laboratories.
Intraperitoneal administration (i.p.) of compounds according to the present invention, namely, 2-methylcarbamoyl-1,2,4,5-tetrahydro-3H-2-benzazepin-3-one (compound A), 4,5-dimethyl-2-methylcarbamoyl-1,2,4,5-tetrahydro-3H-2-benzazepin-3-one (compound B) and 4-n-butyl-2-methylcarbamoyl-1,2,4,5-tetrahydro-3H-2-benzazepin-3-one (compound I) under these conditions produced the effects summarized in the following Table II.

[3] = spinal fixation time test (elementary model of memory); type: in vivo, rat; details: i.p.
From the text: Action on the mnemic processes is shown, in particular, by a reduction in the time for spinal fixation, a test which has been described in the literature (C. GIURGEA and F. MOURAVIEFF-LESUISSE, Arch.Int.Pharmacodyn. 191,(2),(1971),279) as an elementary model of memory and which is endowed with a pharmacological reactivity in good correlation with the clinical physiopathology. In the rat, after unilateral lesion of the cerebellum, there is a postural asymmetry of the hind paws. This asymmetry may persist, even after spinal section, if the animal has been in this situation for a sufficiently long period of time. This time, which is called the spinal fixation time, is 45 minutes under the experimental conditions. On the other hand, if spinal section is performed before the expiry of this period, for example 35 minutes after the onset of the asymmetry, the latter disappears. […] Conversely, any compound which allows the rats to retain the asymmetry (thus achieving spinal fixation) when the spinal section is carried out after 35 minutes, is regarded as being active.
Under these conditions, administration of a compound according to the present invention, for example 2-methyl-carbamoyl-1,2,4,5-tetrahydro-3H-2-benzazepin-3-one (compound A) or 4,5-dimethyl-2-methylcarbamoyl-1,2,4,5-tetrahydro-3H-2-benzazepin-3-one(compound B), produces the following effects: […]

[4] = toxicity, lethal dose (LD50); details: in vivo, ip; rat, intraperitoneal
Procedure: The new compounds according to the present invention appear to have a remarkably low toxicity. For example, for compound A, the lethal dose (LD50) in the rat, when administered intraperitoneally, is more than 1000 mg./kg.

[5] = 30 mg./kg. (0.2 mmole/kg.), Giurgea and Mouravieff-Lesuisse, cited from earlier work

CC1CC(=O)N(C(=O)N2CCOCC2)Cc2ccccc21 (stereo not shown) [C, 5-methyl-2-morpholinocarbonyl-1,2,4,5-tetrahydro-3H-2-benzazepin-3-one]
minimal effective dose [1]: 2.88 mg/kg and 10 µmol/kg | Stimulus initiating the avoidance reaction 24 hours after the first stimulation ([1]; subcut. dose 0.28 mg./kg., control (dose 0) 173): 116 g | Stimulus initiating the avoidance reaction 24 hours after the first stimulation ([1]; subcut. dose 2.88 mg./kg., control (dose 0) 173): 98 g

CNC(=O)N1Cc2ccc(Cl)cc2CCC1=O [D, 7-chloro-2-methylcarbamoyl-1,2,4,5-tetrahydro-3H-2-benzazepin-3-one]
minimal effective dose [1]: 2.52 mg/kg and 10 µmol/kg | Stimulus initiating the avoidance reaction 24 hours after the first stimulation ([1]; subcut. dose 1.26 mg./kg., control (dose 0) 157): 122 g | Stimulus initiating the avoidance reaction 24 hours after the first stimulation ([1]; subcut. dose 2.52 mg./kg., control (dose 0) 157): 100 g

CCCCC1Cc2ccccc2CN(C(=O)NC)C1=O (stereo not shown) [I, 4-n-butyl-2-methylcarbamoyl-1,2,4,5-tetrahydro-3H-2-benzazepin-3-one]
Proportion of survivors, treated animals ([2]; 27 mg./kg. (0.1 mmole/kg.), control 1/10): 7/10 | Proportion of survivors, treated animals ([2]; 87 mg./kg. (0.32 mmole/kg.), control 1/10): 8/10

CCCCNC(=O)N1C(=O)CCc2cc(OC)ccc2C1c1ccccc1 (stereo not shown) [G, 2-n-butylcarbamoyl-7-methoxy-1-phenyl-1,2,4,5-tetrahydro-3H-2-benzazepin-3-one]
Stimulus initiating the avoidance reaction 24 hours after the first stimulation ([1]; subcut. dose 0.72 mg./kg.): 106 g | Stimulus initiating the avoidance reaction 24 hours after the first stimulation ([1]; subcut. dose 3.66 mg./kg.): 95 g

CNC(=O)N1Cc2ccccc2CCC1=O [A, 2-methylcarbamoyl-1,2,4,5-tetrahydro-3H-2-benzazepin-3-one]
spinal fixation after 35 minutes (animals) ([3]; 70 mg./kg. (0.3 mmole/kg.)): three animals out of five | Proportion of survivors, treated animals ([2]; 70 mg./kg. (0.32 mmole/kg.), control 1/10): 6/10 | LD50 [4]: > 1000 mg/kg | minimal effective dose [1]: 2.18 mg/kg and 10 µmol/kg | Stimulus initiating the avoidance reaction 24 hours after the first stimulation ([1]; subcut. dose 1.09 mg./kg., control (dose 0) 159): 120 g | Stimulus initiating the avoidance reaction 24 hours after the first stimulation ([1]; subcut. dose 2.18 mg./kg., control (dose 0) 159): 89 g

CCCCNC(=O)N1Cc2ccccc2CCC1=O [F, 2-n-butylcarbamoyl-1,2,4,5-tetrahydro-3H-2-benzazepin-3-one]
minimal effective dose [1]: < 0.2 mg/kg and < 0.8 µmol/kg | Stimulus initiating the avoidance reaction 24 hours after the first stimulation ([1]; subcut. dose 0.2 mg./kg., control (dose 0) 159): 92 g

CNC(=O)N1Cc2ccc(Cl)cc2CC(C)C1=O (stereo not shown) [E, 7-chloro-4-methyl-2-methylcarbamoyl-1,2,4,5-tetrahydro-3H-2-benzazepin-3-one]
minimal effective dose [1]: 0.53 mg/kg and 2 µmol/kg | Stimulus initiating the avoidance reaction 24 hours after the first stimulation ([1]; subcut. dose 0.26 mg./kg., control (dose 0) 163): 115 g | Stimulus initiating the avoidance reaction 24 hours after the first stimulation ([1]; subcut. dose 0.53 mg./kg., control (dose 0) 163): 83 g

CN(C)C(=O)N1Cc2ccccc2CCC1=O [H, 2-dimethylcarbamoyl-1,2,4,5-tetrahydro-3H-2-benzazepin-3-one]
minimal effective dose [1]: 2.32 mg/kg and 10 µmol/kg | Stimulus initiating the avoidance reaction 24 hours after the first stimulation ([1]; subcut. dose 2.32 mg./kg.): 90 g

CNC(=O)N1Cc2ccccc2[C@@H](C)[C@@H](C)C1=O (relative stereo) [B, 4,5-dimethyl-2-methylcarbamoyl-1,2,4,5-tetrahydro-3H-2-benzazepin-3-one]
spinal fixation after 35 minutes (animals) ([3]; 24 mg./kg. (0.1 mmole/kg.)): three animals out of seven | Proportion of survivors, treated animals ([2]; 25 mg./kg. (0.1 mmole/kg.), control 1/10): 7/10 | minimal effective dose [1]: 1.23 mg/kg and 5 µmol/kg | Stimulus initiating the avoidance reaction 24 hours after the first stimulation ([1]; subcut. dose 0.49 mg./kg., control (dose 0) 152): 124 g | Stimulus initiating the avoidance reaction 24 hours after the first stimulation ([1]; subcut. dose 1.23 mg./kg., control (dose 0) 152): 107 g

NC(=O)CN1CCCC1=O [piracetam, reference compound]
Proportion of survivors, treated animals ([2]; 45 mg./kg. (0.32 mmole/kg.), control 0/10): 1/10 | Proportion of survivors, treated animals ([2]; 142 mg./kg. (1 mmole/kg.), control 2/10): 4/10 | Proportion of survivors, treated animals ([2]; 454 mg./kg. (3.2 mmole/kg.), control 1/10): 8/10 | spinal fixation after 35 minutes (animals) ([5]; same conditions): four animals out of nine | activity in spinal fixation test [5]: active | minimal effective dose [1]: 3.5 mg/kg and 25 µmol/kg | Stimulus initiating the avoidance reaction 24 hours after the first stimulation ([1]; subcut. dose 1.5 mg./kg., control (dose 0) 153): 120 g | Stimulus initiating the avoidance reaction 24 hours after the first stimulation ([1]; subcut. dose 3.5 mg./kg., control (dose 0) 153): 90 g | retention of the earlier test ([1]; tested 24 hours later, versus control animals): significant degree of retention
